According to publication PMC4097383 (Drug and alcohol dependence, 2013):

B1: human cardiac calsequestrin (CASQ2) (natural protein)
chain: GLNFPTYDGKDRVVSLSEKNFKQVLKKYDLLCLYYHEPVSSDKVTQKQFQLKEIVLELVAQVLEHKAIGFVMVDAKKEAKLAKKLGFDEEGSLYILKGDRTIEFDGEFAADVLVEFLLDLIEDPVEIISSKLEVQAFERIEDYIKLIGFFKSEDSEYYKAFEEAAEHFQPYIKFFATFDKGVAKKLSLKMNEVDFYEPFMDEPIAIPNKPYTEEELVEFVKEHQRPTLRRLRPEEMFETWEDDLNGIHIVAFAEKSDPDGYEFLEILKQVARDNTDNPDLSILWIDPDDFPLLVAYWEKTFKIDLFRPQIGVVNVTDADSVWMEIPDDDDLPTAEELEDWIEDVLSGKINTEDDDEDDDDDDNSDEEDNDDSDDDDDE

How the values were obtained:
[1] = biological target: T1, human cardiac calsequestrin (CASQ2) (Homo sapiens, UniProt O14958); assay: isothermal titration calorimetry; assay type: binding
T1 sequence (O14958 20-399): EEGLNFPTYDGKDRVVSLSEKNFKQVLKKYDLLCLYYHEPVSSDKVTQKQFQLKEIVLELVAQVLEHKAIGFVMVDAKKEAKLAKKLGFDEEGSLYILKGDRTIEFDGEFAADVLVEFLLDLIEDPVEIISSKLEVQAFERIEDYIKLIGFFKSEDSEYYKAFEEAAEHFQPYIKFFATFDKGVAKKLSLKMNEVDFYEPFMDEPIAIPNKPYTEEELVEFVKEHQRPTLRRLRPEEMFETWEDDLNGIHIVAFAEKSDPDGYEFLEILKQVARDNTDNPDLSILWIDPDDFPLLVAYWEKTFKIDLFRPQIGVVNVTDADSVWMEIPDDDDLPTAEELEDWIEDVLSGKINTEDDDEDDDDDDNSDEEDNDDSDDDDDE

[2] = biological target: T1, human cardiac calsequestrin (CASQ2); assay: equilibrium dialysis and atomic absorption spectroscopy; assay type: biochemical; conditions: 350 μM cocaine, 1 mg/mL CASQ2, 1 h preincubation
[3] = biological target: the molecule itself; assay: SEC-MALS

Molecule	Kd [1]	% reduction in Ca2+ binding capacity at 350 μM [2]	stoichiometry N [3]
COC(=O)[C@H]1[C@@H](OC(=O)c2ccccc2)C[C@@H]2CC[C@H]1N2C [cocaine]	63.5 ± 2.7 µM	~ 50%	
B1			2
